Test results from PubChem BioAssay (NCI).
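Abbreviation: GI50, concentration required for 50% inhibition of growth. Definition used: TGI = concentration required for complete inhibition of growth.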

Experiments:
Assay in all cases: growth of human tumour cells (NCI), 384-well format
DU-145 prostate = system: DU-145 prostate
NCI-H460 NSCLC = system: NCI-H460 NSCLC
SF-295 CNS = system: SF-295 CNS
RXF 393 renal = system: RXF 393 renal
A498 renal = system: A498 renal
M14 melanoma = system: M14 melanoma
SK-OV-3 ovarian = system: SK-OV-3 ovarian
SN12C renal = system: SN12C renal
MDA-MB-435 melanoma = system: MDA-MB-435 melanoma
SNB-75 CNS = system: SNB-75 CNS
SR leukemia = system: SR leukemia
A549 NSCLC = system: A549 NSCLC
OVCAR-5 ovarian = system: OVCAR-5 ovarian
SF-268 CNS = system: SF-268 CNS
HOP-62 NSCLC = system: HOP-62 NSCLC
786-0 renal = system: 786-0 renal
T-47D breast = system: T-47D breast
U251 glioblastoma = system: U251 glioblastoma
HCC-2998 colon = system: HCC-2998 colon
SNB-19 CNS = system: SNB-19 CNS
ACHN renal = system: ACHN renal
NCI-H226 lung = system: NCI-H226 lung
K-562 leukemia = system: K-562 leukemia
UO-31 renal = system: UO-31 renal
HL-60(TB) leukemia = system: HL-60(TB) leukemia
KM12 colon = system: KM12 colon
NCI/ADR-RES ovarian = system: NCI/ADR-RES ovarian
CAKI-1 renal = system: CAKI-1 renal
TK-10 renal = system: TK-10 renal

Which results are given for `CCNC(=O)c1noc(-c2cc(C(C)C)c(O)cc2O)c1-c1ccc(CN2CCOCC2)cc1`?
GI50 (DU-145 prostate): < 10 nM; TGI (DU-145 prostate): < 10 nM; GI50 (NCI-H460 NSCLC): < 10 nM; TGI (NCI-H460 NSCLC): < 10 nM; GI50 (SF-295 CNS): 24.7 nM; TGI (SF-295 CNS): 115 nM; GI50 (RXF 393 renal): < 10 nM; TGI (RXF 393 renal): < 10 nM; GI50 (A498 renal): < 10 nM; TGI (A498 renal): 3880 nM; GI50 (M14 melanoma): < 10 nM; TGI (M14 melanoma): 11200 nM; GI50 (SK-OV-3 ovarian): < 10 nM; TGI (SK-OV-3 ovarian): 11000 nM; GI50 (SN12C renal): < 10 nM; TGI (SN12C renal): 28 nM; GI50 (MDA-MB-435 melanoma): < 10 nM; TGI (MDA-MB-435 melanoma): 14900 nM; GI50 (SNB-75 CNS): < 10 nM; TGI (SNB-75 CNS): < 10 nM; GI50 (SR leukemia): < 10 nM; TGI (SR leukemia): < 10 nM; GI50 (A549 NSCLC): < 10 nM; TGI (A549 NSCLC): 10700 nM; GI50 (OVCAR-5 ovarian): 16.9 nM; TGI (OVCAR-5 ovarian): 76.1 nM; GI50 (SF-268 CNS): < 10 nM; TGI (SF-268 CNS): 10700 nM; GI50 (HOP-62 NSCLC): < 10 nM; TGI (HOP-62 NSCLC): 13.1 nM; GI50 ([…]-0 renal): < 10 nM; TGI (786-0 renal): 30.4 nM; GI50 (T-47D breast): < 10 nM; TGI (T-47D breast): 44.8 nM; GI50 (U251 glioblastoma): < 10 nM; TGI (U251 glioblastoma): 29.7 nM; GI50 (HCC-2998 colon): < 10 nM; TGI (HCC-2998 colon): < 10 nM; GI50 (SNB-19 CNS): 13.1 nM; TGI (SNB-19 CNS): 63.7 nM; GI50 (ACHN renal): < 10 nM; TGI (ACHN renal): 15500 nM; GI50 (NCI-H226 lung): < 10 nM; TGI (NCI-H226 lung): 11700 nM; GI50 (K-562 leukemia): < 10 nM; TGI (K-562 leukemia): < 10 nM; GI50 (UO-31 renal): 49.4 nM; TGI (UO-31 renal): > 100000 nM; GI50 (HL-60(TB) leukemia): < 10 nM; TGI (HL-60(TB) leukemia): < 10 nM; GI50 (KM12 colon): < 10 nM; TGI (KM12 colon): 13 nM; GI50 (NCI/ADR-RES ovarian): 66.9 nM; TGI (NCI/ADR-RES ovarian): 269 nM; GI50 (CAKI-1 renal): < 10 nM; TGI (CAKI-1 renal): 12600 nM; GI50 (TK-10 renal): 24.4 nM
